Measured values published in patent US11963998B2, “Modulation of heparin-binding epidermal growth factor activity for tympanic membrane healing” (The Board of Trustees of the Leland Stanford Junior …, priority 2013, dated 2024).

B1: HB-EGF: recombinant heparin binding epidermal growth factor, delivered in a bioabsorbable chitosan-based polymer gel at 5 μg/ml (protein, UniProt Q99075 63-148, looked up)
Heparin-binding EGF-like …: DLQEADLDLLRVTLSSKPQALATPNKEEHGKRKKKGKGLGKKRDPCLRKYKDFCIHGECKYVKELRAPSCICHPGYHGERCHGLSL
modifications: Heparin-binding EGF-like growth factor in chitosan-based gel

Key:
[1] = system: acute tympanic perforations in mice; test: HB-EGF inhibitor applied to acute tympanic membrane perforations (chronic TM perforation model); type: in vivo; conditions: for Perforations open at 2 months / Perforations open at 3 months: mice, OSU8-1 10 mM on gel foam over seven days
Procedure: EGFR ligand shedding can be inhibited to create a chronic tympanic membrane perforation model. Subtotal perforations were created in the pars tensa of TMs in 20 mice using a curved needle. OSU8.1 (10 mM), a selective HB-EGF inhibitor (see Tokumaru et al. (2000) J. Cell Biol.), was injected onto gel foam (placed through and onto the perforation) over seven days. Mice were sacrificed at time points (Day 2, 7, 14, 30, 44, 60 and 90) to observe the effects on keratinocyte migration. The contralateral ear was used as a control with saline placed onto gel foam. All of these were closed within 2 weeks. Five of seven (71%) of the treatment ears were open at three months. Perforation size was stable over three months (using ImageJ to calculate the perforation area as a percentage of the pars tensa area). A larger cohort was undertaken with 87.9% (n=58) having chronic perforations at 3 months.
100% of HB-EGF inhibitor treated perforations were present at two months compared to 5% of controls and 71% were present at three months compared to 5% of controls

[2] = system: chronic perforations and ET occlusion in mice; test: HB-EGF treatment of chronic TM perforations with Eustachian tube occlusion; type: in vivo
Procedure: HB-EGF heals chronic tympanic membrane perforations with Eustachian tube occlusion. An existing rat model of ET occlusion (see Herda et al. (2002) Laryngoscope 112:1657-62) was adapted to the mouse and has since been performed in 80 live mice with success. The ET occlusion was performed with the chronic perforation model described above. This created a wet sterile discharging perforation at 3 months. This model mimics the human condition of chronic perforation combined with ET dysfunction.
When a cohort of mice with this model (chronic perforations and ET occlusion) were treated with recombinant HB-EGF, 40 μl at a concentration of 5 μg/ml (sustained release dose via a bioabsorbable chitosan polymer) 94% (18 of 19) healed compared to 9% (2 of 23) of controls (polymer only) at 6 weeks (p<0.01). […] The ability to overcome this critical step in TM chronic wound healing using HB-EGF to activate EGFR ectodomain ligand shedding in the presence of middle ear effusions and ET occlusion is useful in treating patients with chronic tympanic membrane perforation.

[3] = system: chronic perforation model with ET occlusion inoculated with Pseudomonas aeruginosa; test: HB-EGF treatment in animal model for chronic suppurative otitis media (CSOM); type: in vivo, mice; conditions: polymer and HB-EGF at 5 μg/ml
Excerpt: Testing in an animal model for chronic suppurative otitis media. After creating the chronic perforation model with ET occlusion, Pseudomonas aeruginosa (dose of 6×10^9 colony forming units per ml) were inoculated into the middle ear through the existing chronic perforations. At 2 weeks the ear fluid was collected and sent for polymerase chain reaction (PCR) to confirm the presence of bacteria. This positive PCR validated the CSOM model. The mice were then divided into two cohorts. One received polymer only. The other received polymer and HB-EGF at 5 μg/ml (same dose used in above models). 100% of the HB-EGF group healed (16 of 16) compared to 41% (7/17) in the control group (p<0.01). In the control group the healing was also different when it did occur. The TM was often very thin and transluscent compared to a slightly opaque normal TM. […] The ability to still overcome this critical step in TM chronic wound healing using HB-EGF to activate EGFR ectodomain ligand in the closest model to human CSOM validates the method of treatment.

[4] = system: chronic perforations in mice ears; test: HB-EGF treatment of chronic tympanic membrane perforations; type: in vivo; conditions: 40 μl gel, 5 μg/ml, sustained release chitosan-based polymer; at 4 weeks; p<0.01 vs polymer only
Procedure: HB-EGF heals chronic tympanic membrane perforations. When a cohort of chronic perforations in mice ears were treated with 40 μl of a gel containing recombinant HB-EGF at a concentration of 5 μg/ml (sustained release dose via a bioabsorbable chitosan-based polymer) 92% (22 of 24) healed, compared to 38% (10 of 26) of controls (polymer only) at 4 weeks (p<0.01). […] This is the first growth factor treatment tested in an animal model of chronic perforation that has shown significant benefit over control.

Row | Molecule | chronic perforations at 3 months, larger cohort ([1]; larger cohort, n=58, 3 months) | Perforations open at 2 months [1] | Perforations open at 2 months ([1]; listed as HB-EGF inhibitor) | Perforations open at 3 months ([1]; 3 months) | Perforations open at 3 months ([1]; 3 months, listed as HB-EGF inhibitor) | Perforations open at 3 months ([1]; 3 months, listed as OSU8.1) | Perforation size (perforation area as a percentage of the pars tensa area) ([1]; over three months, ImageJ) | chronic perforations with ET occlusion healed ([2]; 40 μl at 5 μg/ml, sustained release chitosan polymer, at 6 weeks, p<0.01 vs polymer only) | histology of perforation closure ([2]; chronic perforations and ET occlusion model) | appearance of healing in CSOM model [3] | perforations healed in CSOM model ([3]; p<0.01 vs polymer only) | chronic perforations healed [4]
1 | CNC(=O)[C@@H](NC(=O)[C@H](CC(C)C)[C@H](C)C(=O)NO)c1ccccc1 [OSU8-1] | 87.9% | 100% | 100% | 71% | 71% | 71% | stable |  |  |  |  | 
2 | B1 |  |  |  |  |  |  |  | 94% | close with thick layer of keratinocytes | appeared normal | 100% | 92%
